We go through 2 molecules from patent US9969763B2, “1,2,3-triazole-tethered carbohydrate-di and tri lipidated cysteine conjugates useful as vaccine adjuvants and process for preparation thereof” (Council of Scientific and Industrial Research, priority 2015, dated 2018).

Where a SMILES comes first, the peptide text is derived from it. The star is where a group is joined. X1 = CCCCCCCCCCCCCCCC(=O)OCC(C*)OC(=O)CCCCCCCCCCCCCCC; Palmitoyl = CCCCCCCCCCCCCCCC(=O)*

In data set [1] the test system is extracellular markers CD4, CD8, CD80, CD86, CD40. The data set can be described thus: Immunophenotyping, staining for extracellular markers (flow cytometry). In kind it is cell-based. As to the method: 2.2.5 Immunophenotyping—Staining for extracellular markers: Staining was as per the manufacturer's protocol and run on a BD FACSVerse flow cytometer (cat nos. 557596, 553047, 560016 and 553723; BD Biosciences, USA). Compensation was established using BD Biosciences compensation beads. Post acquisition flow cytometry analysis was performed using FACS Suite software and data were represent in the mean fluorescence intensity values.
On the technique in general: In flow cytometry, cells or beads pass a laser one at a time.

In data set [2] the test system is Splenocytes. Briefly: HBsAg stimulated splenocyte proliferation in immunized mice. Format: in vivo, BALB/c mice. To be noted: HBsAg antigen; conjugates 2-80 μg. Here is the method: (§1) 1.2.1 Proliferation of immune cells: Splenocytes were seeded into 96 well flat bottom microtiter plates having 1×10^5 cells/well in complete RPMI-1640 medium (cat no. AT028-1L, Himedia). Plates were incubated at 37° C., with 5% CO2 incubator. After 48 h of incubation 20 μl of Triazolyl blue Tetrazolium Bromide (MTT) (cat no. M2128, Sigma-Aldrich. St. Louis, Mo.) solution (5 mg/mL) was added to each well, incubated for next 4 h. Untransformed MTT was removed from each well by aspirating the supernatant (180 μL)and replaced with DMSO (Sigma-Aldrich, St. Louis, Mo.). The absorbance was read at 630 nm after 15 min.
Vaccine was formulated with Hepatitis B antigen (HBsAg, cat. No HBS-870-c, ProspecBio, Israel))alone or with various adjuvants like Pam3CSK4 and their analogues. The adjuvanticity induced by each of the vaccine is determined by antibody titre, cytokine production and proliferation of immune cells.
(§2) Male BALB/c mice were immunized with different groups according to various concentrations of (conjugates)preferably 2 to 80 μg/dose, more preferably 6 to 50 μg/dose, most preferably 8 to 40 μg/dose, along with PBS and HBsAg antigen control. A booster dose was given on 14th day and sacrificed 2 weeks after booster.
2.2.1 Proliferation of immune cells: Splenocyte proliferation was measured by the same method as described in Example 13 except that HBsAg antigen. […]

A further data set in a line: in vitro. In kind it is cell-based. To be noted: rat, NRK-49F rat kidney cells. As to the method:
2.2.6 In vitro cytotoxicity evaluation by MTT assay: Rat kidney cell line NRK-49F (NCCS, Pune) was exposed to varying doses of test compounds in the range of […], to determine the toxicity after 48 h of incubation. The colorimetric MTT assay was used to evaluate cell viability which is determined based on reduction of MTT to blue formazan crystals by the mitochondrial succinate dehydrogenase enzymes of viable cells.

Data set [3] concerns cytokines IL-2, IL-12, IFN-γ, TNF-α, IL-10, IL-6. The data set can be described thus: Cytokine expression on immunization with HBsAg (ELISA). To be noted: HBsAg antigen. Format: in vivo, BALB/c mice. Here is the method: (§3) 1.2.2 Cytokine expression on immunization: ELISA was carried out by Opti Elisa Kit (cat no. 560485, BD biosciences, USA). Briefly, 96-Well plates were coated with capture antibody dissolved in coating buffer. Wells were blocked with PBS containing 0.05% Tween-20 for 1h at RT. After blocking, 100 μL/well of supernatant was added and incubated for overnight at 4° C. After washing, biotinylated secondary antibody was added along with enzyme. Plates were incubated for 1h at RT. Then plates were washed and substrate solution was added. The reaction was stopped and the absorbance was measured at 450 nm in ELISA reader (BioTek-Elx800).
as §2
2.2.2 Cytokine expression on immunization: Cytokine expression was measured by the same method as described in the Example 13 except that HBsAg antigen.

In another data set the test system is rat RBCs. Format: cell-based. To be noted: red cells of rat. Here is the method:
2.2.7 Hemolytic assay: Different concentration of test compounds were tested with fixed volume concentration of rat RBCs. After incubation for 30 min the percentage of hemolysis was determined by comparing the absorbance (k=540 nm) of the supernatant with that of distilled water as positive control.

Another data set addresses T1, Human TLR-2 (Homo sapiens, UniProt O60603).
T1 construct: host or cells: HEK-Blue hTLR2 cells (HEK293-derived reporter line)
The data set can be described thus: Human TLR-2 reporter gene assay (NF-κB induction, SEAP). To be noted: HEK-Blue hTLR2 cells, 24 h. In kind it is cell-based. As to the method: 2.2.4 Human TLR-2 reporter gene assays (NF-κB induction): The assay was performed as per the manufacturer's instructions. HEK-Blue™ hTLR2 cells (cat no. hkb-htlr2, Invivogen, USA, 25,000 cells per well) were harvested in HEK-Blue™ selection medium containing normocin treated with the compounds and the plate were incubated at 37° C. in 5% CO2 for 24 h. SEAP (secreted embryonic alkaline phosphatase) can be observed with naked eye and determined using a spectrophotometer at 620-655 nm.
A general note: A reporter such as luciferase makes a cellular process visible.

Data set [4] relates to Splenocytes. Briefly: OVA stimulated splenocyte proliferation (MTT) in immunized mice. Format: in vivo, BALB/c mice. To be noted: OVA antigen; mice immunized s.c., conjugates 2-80 μg, booster 14th day; MTT after 48 h. Here is the method:
(§4) 13.1 Preparation and immunization of the vaccine: Male BALB/c mice (Procured from laboratory animal facility of National Institute of Nutrition, Hyderabad, IAEC No. IICT/Bio/fox/PG/1/02/2013) were immunized subcutaneously with different groups according to various concentrations of conjugates covered in examples 1-12, preferably 2 to 80 μg/dose, more preferably 6 to 50 μg/dose, most preferably 8 to 40 μg/dose, along with PBS (car no. TS1006, Himedia)and antigen control. A booster dose was given on 14th day and sacrificed 2 weeks after booster.
as §1
All triazolyl adjuvant conjugates induced splenocyte proliferation responses at the dose of 2-80 μg.

For data set [5], the system named is cytokines IL-2, IL-12, IFN-γ, TNF-α, IL-10, IL-6. Briefly: Cytokine expression on immunization with OVA (ELISA). In kind it is in vivo, BALB/c mice. To be noted: OVA antigen. As to the method: as §4, §3
A general note: In an ELISA, binding on a coated surface is turned into a signal by an enzyme label.

In the next data set the test system is OVA antigen. The data set can be described thus: Antibody titre against OVA antigen and isotypes (ELISA). Format: in vivo, BALB/c mice. To be noted: 28th day; for IgG titer: serum anti-OVA; for IgG1 titer / IgG 2a titer: serum, OVA immunized mice. Here is the method:
as §4
(§5) 1.2.2 Antibody titre against OVA antigen: From the immunized mice retro-orbital sampling or retro-orbital blood was collected on 14th and 28th day before sacrifice. Serum was separated by centrifugation at 12,500 rpm for 5 min. Transferred to a clean centrifuge tube and store at −80 until used. The plates were coated with OVA (1 μg/well) in carbonate buffer. Plates were incubated at 4° C., overnight. They were then washed 3 times with PBS/Tween, and non-specific binding sites were blocked by adding 200 μl of blocking solution. Plates were incubated at room temperature for 1 h. Then 3 times wash is done, diluted standards and samples to desired concentrations in blocking solution were added to the plates. Incubate at 37° C. for 1 h or at 4° C., overnight. Plates were washed 3 times with PBS/Tween. Avidin-Horseradish Peroxidase (Av-HRP, cat no. 45210, Biolegend, USA) was diluted and added. Incubated at room temperature for 30 min. Plates were washed 3 times with PBS/Tween. Substrate was added, mix equal volumes of TMB Reagent A and B(cat no. 421101, Biolegend, USA) immediately prior to use. Plates were incubated at room temperature (4-30 min) for color development. Color reaction was stopped by adding 50 μl of stop solution. Optical density (OD) was read at 450 nm.
(§6) 1.2.3 Isotypes of antigen specific antibody: The plates were coated with diluted unlabeled capture antibody to a final concentration of 0.5-8 μg/ml. Plates were incubated at 4° C. overnight. They were then washed 3 times with PBS/Tween, and non-specific binding sites were blocked by adding 200 μl of blocking solution. Plates were incubated at room temperature for 1 h. Washing is done thrice, diluted standards and samples to desire concentrations in blocking solution were added to the plates. Incubate at room temperature for 2-4 h or at 4° C., overnight. Plates were washed 3 times with PBS/Tween. Detection antibodies were added 0.25-2 μg/ml in blocking buffer, followed by incubation at room temperature for 1 h. Plates were washed 3 times with PBS/Tween. Avidin-Horseradish Peroxidase (Av-HRP) was diluted and added. Incubated at room temperature for 30 min. Plates were washed 5 times with PBS/Tween. Substrate was added, mix equal volumes of TMB Reagent A and B immediately prior to use. Plates were incubated at room temperature (0.4-30 min) for color development. Color reaction was stopped by adding 50 μl of stop solution. Optical density (OD) was read at 450 nm.
IgG1 and IgG2a were measured by sandwich ELISA.

The test system of a further data set is HBsAg antigen. The data set can be described thus: Antibody titre against HBsAg antigen (ELISA). To be noted: 28th day; for IgG titer: serum anti-HBsAg; for IgG1 titer / IgG 2a titer: serum, HBsAg immunized mice. Format: in vivo, BALB/c mice. As to the method:
as §5, §6, §2
2.2.3 Antibody titre against HBsAg antigen: Antibody titer was determined by the same method as described in the Example 13 except that HBsAg antigen.
Antibody titres IgG, IgG1 and IgG2a were measured by sandwich ELISA.

As usually defined, the viability is a read-out of living cells in per cent, often relative to untreated cells. Lower therefore signals a greater loss of cells.

T1 sequence (O60603 21-784): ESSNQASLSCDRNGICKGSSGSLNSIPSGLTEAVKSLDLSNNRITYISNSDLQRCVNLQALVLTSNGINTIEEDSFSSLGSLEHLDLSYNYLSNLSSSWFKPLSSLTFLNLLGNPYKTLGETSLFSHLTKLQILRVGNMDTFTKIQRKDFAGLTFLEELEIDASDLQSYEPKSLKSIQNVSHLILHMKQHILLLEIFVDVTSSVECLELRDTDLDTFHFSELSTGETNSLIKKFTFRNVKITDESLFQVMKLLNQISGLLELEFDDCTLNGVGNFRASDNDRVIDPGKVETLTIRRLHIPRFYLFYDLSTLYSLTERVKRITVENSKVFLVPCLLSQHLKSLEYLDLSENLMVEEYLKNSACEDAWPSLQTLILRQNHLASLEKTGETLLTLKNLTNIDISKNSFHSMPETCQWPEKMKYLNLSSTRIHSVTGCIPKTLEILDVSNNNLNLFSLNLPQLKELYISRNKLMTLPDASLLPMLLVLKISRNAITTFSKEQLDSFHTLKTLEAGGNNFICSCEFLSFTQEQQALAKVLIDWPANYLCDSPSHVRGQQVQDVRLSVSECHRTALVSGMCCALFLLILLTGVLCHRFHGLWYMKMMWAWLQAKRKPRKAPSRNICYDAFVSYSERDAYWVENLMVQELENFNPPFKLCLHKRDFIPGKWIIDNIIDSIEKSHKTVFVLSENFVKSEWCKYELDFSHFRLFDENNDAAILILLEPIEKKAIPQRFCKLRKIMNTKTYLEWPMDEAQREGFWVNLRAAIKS

Turning to `CCCCCCCCCCCCCCCC(=O)N[C@@H](CSCC(COC(=O)CCCCCCCCCCCCCCC)OC(=O)CCCCCCCCCCCCCCC)C(=O)N[C@@H](CO)C(=O)N[C@@H](CCCCN)C(=O)N[C@@H](CCCCN)C(=O)N[C@@H](CCCCN)C(=O)N[C@@H](CCCCN)C(=O)O` (stereo partly shown) [Standard (VacciGrade Pam3Cys) control] (Palmitoyl-C(X1)SKKKK-OH; N-terminus and C-terminus assumed), in data set [1], the “Immunophenotyping (MFI) CD4” value was 1400-3000 MFI, the “Immunophenotyping (MFI) CD8” value is given as 2000-4000 MFI, the “Immunophenotyping (MFI) CD40” value was 1000-2500 MFI and the “Immunophenotyping (MFI) CD80” value was 1600-2500 MFI. For the same molecule, the “Immunophenotyping (MFI) CD86” value in data set [1] is 1200-2000 MFI. The Splenocyte proliferation with Splenocytes [2] was 250-500. Also, the viability at 48 h in the data set “in vitro” fell in the range of 95 to 100%. In data set [3], the “Serum cytokines IFN-γ” value is 250 to 325 pg/mL, the “Serum cytokines IL-2” value fell in the range of 250 to 300 pg/mL, the “Serum cytokines IL-6” value lay within 250 to 295 pg/mL and the “Serum cytokines IL-10” value was 325 to 475 pg/mL. Besides, in data set [3], the “Serum cytokines IL-12” value is 150 to 250 pg/mL and the “Serum cytokines TNF-α” value lay in the range of 275 to 400 pg/mL. Also, the “% Hemolysis” value with rat RBCs is given as 2-5%. In addition, at Human TLR-2, the “TLR Ligand activity, SEAP Absorbance (655 nm)” value is on record as 1.2-2. For the same molecule, the Splenocyte proliferation in the data set on Splenocytes [4] is recorded as 200-350. In data set [5], the “Serum cytokines IFN-γ” value lay within 100 to 140 pg/mL, the “Serum cytokines IL-2” value fell in the range of 100 to 150 pg/mL, the “Serum cytokines IL-6” value was 100 to 120 pg/mL and the “Serum cytokines IL-10” value lay in the range of 180 to 220 pg/mL. Further, in data set [5], the “Serum cytokines IL-12” value lay within 80 to 140 pg/mL and the “Serum cytokines TNF-α” value was in the range of 150 to 200 pg/mL. Besides, in the data set on OVA antigen, the IgG titer is reported as 102400-819200, the IgG1 titer is on record as 102400-1638400 and the “IgG 2a titer” value was 102400-3276800. In addition, in the data set with HBsAg antigen, the IgG titer was 204800-819200, the IgG1 titer is reported as 102400-409600 and the “IgG 2a titer” value is recorded as 204800-3276800.

B1: OVA control: experimental weak antigen ovalbumin (cat no. A5503, Sigma-Aldrich) given alone as antigen control (protein, UniProt P01012 2-386, looked up)
Ovalbumin: GSIGAASMEFCFDVFKELKVHHANENIFYCPIAIMSALAMVYLGAKDSTRTQINKVVRFDKLPGFGDSIEAQCGTSVNVHSSLRDILNQITKPNDVYSFSLASRLYAEERYPILPEYLQCVKELYRGGLEPINFQTAADQARELINSWVESQTNGIIRNVLQPSSVDSQTAMVLVNAIVFKGLWEKAFKDEDTQAMPFRVTEQESKPVQMMYQIGLFRVASMASEKMKILELPFASGTMSMLVLLPDEVSGLEQLESIINFEKLTEWTSSNVMEERKIKVYLPRMKMEEKYNLTSVLMAMGITDVFSSSANLSGISSAESLKISQAVHAAHAEINEAGREVVGSAEAGVDAASVSEEFRADHPFLFCIKHIATNAVLFFGRCVSP
As for B1, in the data set with OVA antigen, the IgG titer is listed as 6400-12800, the IgG1 titer is given as 6400-25600 and the “IgG 2a titer” value is listed as 6400-12800. In the data set on HBsAg antigen, the IgG titer was 12800-51200, the IgG1 titer is 12800-102400 and the “IgG 2a titer” value is 12800-51200.
